# According to US10857128B2, “Methods and compositions for treating inflammatory diseases” (Helmholtz Zentrum München Deutsches Forschungszentrum für …, priority 2017, dated 2020):
# Read-outs that look alike come from different tables or passages of the source.
# Key:
# Format in all cases: cell-based
# [1] = tested on: costimulatory molecules of LPS-stimulated human dendritic cells; assay: Costimulatory molecules on LPS-stimulated human monocyte-derived dendritic cells (flow cytometry); conditions: Dendritic cell, 24 h, LPS 0.1 μg/ml, D-amino acid 10 μM, mean ± SD of three experiments, relative to LPS-induced expression
# Protocol: Generation of human monocyte-derived dendritic cells. Peripheral venous blood was obtained from healthy volunteers aged between 20 and 50 years after informed consent. Individuals with allergic disease, acute infection or taking any medication 20 days prior to blood sampling or any history of smoking (personal interview) were excluded prior to blood sampling. All experiments were conducted according to the principles expressed in the Declaration of Helsinki.
# (§1) Peripheral blood mononuclear cells (PBMC) were isolated from heparinized whole blood by density gradient centrifugation (2000 rpm, 22° C., 20 min) (Biocoll, Biochrom AG, Berlin, Germany). […] Purity and viability of DCs was assessed by flow cytometry (FIG. 9A-C).
# Costimulatory molecules on human DCs. The following primary monoclonal antibodies were used: CD83 fluorescein isothiocyanate (FITC); CD1a phycoerythrin (PE); CD86-FITC; CD80-PE; CD14 allophycocyanine (APC); CD40-APC; CD3-peridinin chlorophyll protein (PerCP); HLA-DR-PerCP; mouse immunoglobulins G1 (IgG1) mouse immunoglobulins G1 (IgG1) κ were used as isotype controls using the corresponding fluorochromes (all purchased from BD Biosciences, Heidelberg, Germany). To account for donor dependent variability of DC surface markers, all data were normalized to the expression induced by LPS which was set to 100% after subtraction of background values (FACS Canto, FACS DIVA software, Version 5.0.3, BD Biosciences, Heidelberg, Germany). Murine DC subsets and CD4^+ T cells. Single cell suspensions of splenocytes were obtained by filtering spleens through a 70 μm strainer. Samples were stained with CD3-PB (1:200, Biolegend, San Diego, USA), CD4-APC-H7 (BD, 1:400), CD11c-APC-Cy7 (1:100), Mhc-II-Percp-Cy5 (1:100), CD11b-FITC (1:100), CD80-AF647, CD40-APC (1:100). For intracellular cytokines, total spleen cells were stimulated with anti-CD3 (4 μg/mL, BD Bioscience, Heidelberg, Germany) and anti-CD28 (30 ng/mL, BD Bioscience, Heidelberg, Germany) for 16 h. 1×10^6 of total lung cells were stimulated for 16 h with MACSiBead particles coated with anti-CD3 and anti-CD28 using the T cell activation/expansion kit (Miltenyi Biotec, Bergisch Gladbach, Germany) in TexMACS medium (Miltenyi Biotec) according to the manufactures recommendations. Prior to staining, cells were treated with monensin (0.7 μL/mL, BD Golgi Stop, BD Bioscience, Heidelberg, Germany) for 6 h at 37° C. and intracellularly stained for II-4-PE (1:100, eBioscience, Vienna, Austria according to the manufacturer's protocols. Intracellular staining for Foxp3 was performed by using the Foxp3/Transcription Factor Staining buffer set (eBiosciences, Vienna, Austria) according to the manufacturer's recommendations.
# Bioassays for screening for immune modulatory activity in probiotic supernatants. Two biological assays based on down-modulation of costimulatory molecules on human DCs, and of CCL17-secretion by a human Hodgkin lymphoma T cell line (KM-H2) were set up. Human immature DCs were matured with 0.1 μg/mL lipopolysaccharide (LPS) from E. coli (Sigma-Aldrich, St. Louis, USA) in the presence or absence of 200 μL bacteria free supernatants for 24 h followed by flow cytometric analysis of costimulatory molecules.
# human LPS treated DCs = assay: Cytokine secretion of human DCs (multiplex assay); conditions: for IFN-g / IL-5 / IL-10 / IL-12: 200 μl supernatant or amino acid 10 μM, 14 h
# Protocol: as §1
# […] For probiotic supernatants, blank CDM1 was used as medium control. […] IL-5, IFN-gamma, IL-12, and IL-10, were quantified by a multiplex assay (Milliplex Human Cytokine Immunoassay, Millipore GMbH Schalbach, Germany) as described by the manufacturer.
# [2] = tested on: CCL17 secretion of human Hodgkin lymphoma KM-H2 cells; assay: CCL17 secretion bioassay with KM-H2 cells (ELISA); conditions: different concentrations, 24 h
# Protocol: Human T cell line KM-H2. The human Hodgkin lymphoma T cell line (KM-H2) was purchased from the Leibniz Institute DSMZ-German Collection of Microorganisms and Cell Cultures, Braunschweig, Germany. 3-5×10^6 KM-H2 cells were grown in 4 mL RPMI 1640 per well in 6-well-plates (Nunc, Wiesbaden, Germany). All eukaryotic cells were cultured in 5% CO2 at 37° C. (HeraCell 240 and Heraeus BDD 6220, Thermo Fisher Scientific, Waltham, USA). Viability of cells after treatment with bacterial supernatants was assessed by trypan blue, 7-AAD and CellTiter-Blue® staining. (FIG. 9A-C)
# Quantification of CCL17 and cytokines in eukaryotic cell culture supernatants. CCL17 was quantified in cell culture supernatants of KM-H2 cells using ELISA reagent Quantikine CCL17/TARC, (R&D Systems, Minneapolis, USA) according to the manufacturer's instructions (ELISA reader MRXII, Thermo Fisher Scientifc, Waltham, USA).
# Bioassays for screening for immune modulatory activity in probiotic supernatants. Two biological assays based on down-modulation of costimulatory molecules on human DCs, and of CCL17-secretion by a human Hodgkin lymphoma T cell line (KM-H2) were set up. […]
# Similarly, 200 μL supernatants were added to 3-5×10^6 KM-H2 cells for 24 h. Supernatants were collected from KM-H2 by centrifugation and stored at −80° C. until quantification of CCL17. […]
# [3] = read-out: Percentage of CD40 expressing mature DCs
# [4] = read-out: Percentage of CD80 expressing mature DCs
# [5] = read-out: Percentage of CD83 expressing mature DCs
# [6] = read-out: Percentage of CD86 expressing mature DCs
# [7] = read-out: Percentage of HLA-DR expressing mature DCs
Compound,"activity at 10 µM [1, 3]","activity at 10 µM [1, 4]","activity at 10 µM [1, 5]","activity at 10 µM [1, 6]","activity at 10 µM [1, 7]",Ratio IL-5/IFN-g (human LPS treated DCs; with LPS 0.1 μg/ml),Ratio IL-10/IL-12 (human LPS treated DCs; with LPS 0.1 μg/ml),IFN-g (human LPS treated DCs; with LPS 0.1 μg/ml),IL-5 (human LPS treated DCs; with LPS 0.1 μg/ml),IL-10 (human LPS treated DCs; with LPS 0.1 μg/ml),IL-12 (human LPS treated DCs; with LPS 0.1 μg/ml),Ratio IL-5/IFN-g (human LPS treated DCs; without LPS),IFN-g (human LPS treated DCs; without LPS),IL-5 (human LPS treated DCs; without LPS),IL-12 (human LPS treated DCs; without LPS),Ratio IL-10/IL-12 (human LPS treated DCs; without LPS),IL-10 (human LPS treated DCs; without LPS),immune activity of synthetic tryptophan isomers in the CCL17 bioassay [2]
N[C@H](Cc1ccccc1)C(=O)O [D-phenylalanine],100 ± 2.7%,92.4 ± 3.5%,99.6 ± 2%,99.2 ± 3.3%,98 ± 3.2%,,,,,,,,,,,,,
CC(C)[C@@H](N)C(=O)O [D-valine],101 ± 2.4%,99.6 ± 2%,102 ± 1.2%,101.8 ± 0.9%,100 ± 1%,,,,,,,,,,,,,
C[C@@H](N)C(=O)O [D-alanine],102 ± 3.4%,98.3 ± 2.6%,97.7 ± 2.3%,99.2 ± 2.1%,98.1 ± 1.1%,,,,,,,,,,,,,
CC[C@@H](C)[C@@H](N)C(=O)O [D-isoleucine],100 ± 2.4%,98.2 ± 1.5%,100 ± 1.1%,99.8 ± 1.2%,100.1 ± 0.3%,,,,,,,,,,,,,
CSCC[C@@H](N)C(=O)O [D-methionine],102.7 ± 0.6%,100.4 ± 0.2%,102 ± 2.2%,102 ± 2.5%,98.9 ± 2%,,,,,,,,,,,,,
N[C@H](CO)C(=O)O [D-serine],101 ± 1.1%,100 ± 2.8%,100.8 ± 0.3%,101 ± 2.8%,98.6 ± 0.6%,,,,,,,,,,,,,
CC(C)C[C@@H](N)C(=O)O [D-leucine],100 ± 1.7%,100 ± 1.6%,97.1 ± 2.4%,102 ± 1.3%,98 ± 10%,,,,,,,,,,,,,
N[C@H](Cc1ccc(O)cc1)C(=O)O [D-tyrosin],100 ± 1.3%,101.6 ± 0.4%,101.6 ± 0.6%,102.2 ± 0.9%,98.4 ± 2.4%,,,,,,,,,,,,,
"O=C(O)[C@@H]1CCCN1 [L-Pro, L-Prolin]",,,,,,0.027,0.003,2133.90 pg/mL,57.70 pg/mL,6.00 pg/mL,1938.00 pg/mL,0.166,88.90 pg/mL,14.80 pg/mL,99.80 pg/mL,,,
O=C(O)[C@H]1CCCN1 [D-proline],99.2 ± 1.3%,100.3 ± 0.1%,100.9 ± 0.4%,101 ± 1.9%,98.4 ± 2.6%,0.030,0.002,2295.40 pg/mL,69.10 pg/mL,4.00 pg/mL,1911.90 pg/mL,0.171,92.60 pg/mL,15.80 pg/mL,90.60 pg/mL,0.065,5.90 pg/mL,
"N[C@@H](Cc1c[nH]c2ccccc12)C(=O)O [L-Trp, L-Tryptophan]",,,,,,0.030,0.002,2031.50 pg/mL,61.40 pg/mL,4.90 pg/mL,1993.00 pg/mL,0.267,45.00 pg/mL,12.00 pg/mL,88.30 pg/mL,0.065,5.70 pg/mL,inactive
C[C@H](O)[C@@H](N)C(=O)O [D-threonine],101 ± 1.5%,100.8 ± 0.4%,102.6 ± 0.5%,102.1 ± 0.7%,97.1 ± 3.9%,,,,,,,,,,,,,
N[C@H](Cc1c[nH]cn1)C(=O)O [D-histidine],101 ± 3.2%,102 ± 0.9%,103.1 ± 0.3%,102.5 ± 0.4%,99.9 ± 0.9%,,,,,,,,,,,,,
